Test results as given in PubChem BioAssay AID1845213 (Molecular Pharmacology Branch, DTP, NCI, 2023).

System: NCI-H841 complex tumor spheroid viability
Experiment: Anticancer human tumor NCI-H841 cell line growth inhibition;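 further: spheroids exposed to compounds for 7 days before readout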;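 on viability, T/C: 100% = DMSO vehicle control wells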
Conditions: for IC50: curve of first compound; for viability, T/C: stronger effect = lower value
Description: Multicellular complex tumor spheroid response to DNA repair inhibitors in combination with DNA-damaging drugs
This study explores the anticancer activities of DNA-damaging drugs and inhibitors of DNA damage repair, both as single agents and in combinations. Complex tumor spheroids comprised of malignant cells, endothelial cells and mesenchymal stem cells served as an in vitro model for human solid tumors. This model system incorporates physiologically relevant features and patient-derived or established malignant cell lines with clinically relevant genetic alterations from many tumor types. Twenty-six patient-derived or established malignant cell lines were evaluated representing sarcoma, melanoma, small cell lung cancer (SCLC), non-small cell lung cancer (NSCLC), as well as bladder, ovarian and pancreatic cancers. The concentration ranges selected for each drug and investigational agent were based upon clinically achievable concentrations if the clinical Cmax of the agent was known.
Compounds. The drugs and compounds olaparib (NSC753686), talazoparib (NSC767125), berzosertib (NSC777718), elimusertib (NSC800525), nedisertib (NSC802822), VX-984 (NSC792969), AZD-1390 (NSC803789), temozolomide (NSC362856), topotecan (NSC609699), trabectedin (NSC813783), staurosporine (NSC755774), and gemcitabine (NSC613327) were obtained from the National Cancer Institute (NCI) Developmental Therapeutics Program Chemical Repository. The FDA-approved anticancer drug set is available from the Developmental Therapeutics Program at https://dtp.cancer.gov/organization/dscb/obtaining/available_plates.htm. […] The stock solutions were prepared in dimethyl sulfoxide (DMSO, Sigma-Aldrich, St. Louis, MO, cat. D2650) at 400-fold the tested concentration and stored at -70 degrees C. Prior to their use, the stock solutions were diluted in fresh medium and the final DMSO concentration in the assay was 0.25% (v/v). All drugs and investigational agents were tested over a range starting from a high concentration at or near the clinical Cmax and decreasing in half-log increments. If the clinical Cmax for an agent had not been determined, the highest concentration tested was 10 microM.
Cell Lines. The patient-derived cancer cell (PDC) lines: 156681-154-R-J1-PDC, 283228-195-R-J1-PDC, 287954-098-R-J1-PDC, 292921-168-R-J2-PDC, 349418-098-R-PDC, 425362-245-T-J1-PDC, 556581-035-R-J1-PDC, and BL0293-F563-PDC were received from the NCI Patient-Derived Models Repository (PDMR, https://pdmr.cancer.gov). The established cell lines HS-SY-2 (RRID:CVCL_8719), MPNST, and SYO-1 (RRID:CVCL_7146) were obtained from the Sloan Kettering Institute. The alveolar soft parts sarcoma cell line ASPS-1 (RRID:CVCL_S738) was established at the NCI and grown from internal seed stocks. The following established cell lines were purchased from the American Type Culture Collection (ATCC, Manassas, VA): G-401 (ATCC, cat. CRL-1441, RRID:CVCL_0270), SW982 (ATCC, cat. HTB-93, RRID:CVCL_1734), VA-ES-BJ (ATCC, cat. CRL-2138, RRID:CVCL_1785), NCI-H719 (ATCC, cat. CRL-5837, RRID:CVCL_1582), NCI-H196 (ATCC, cat. CRL-5823, RRID:CVCL_1509), NCI-H841 (ATCC, cat. CRL-5845, RRID:CVCL_1595), NCI-H1618 (ATCC, cat. CRL-5879, RRID:CVCL_1480), NCI-H1876 (ATCC, cat. CRL-5902, RRID:CVCL_1503), DMS 114 (ATCC, cat. CRL-2066; RRID:CVCL_1174), NCI-H211 (ATCC, cat. CRL-5824; RRID:CVCL_1529), and SW 1271 (ATCC, cat. CRL-2177, RRID:CVCL_1716). The small cell lung cancer cell line COR-L88 was purchased from Sigma-Aldrich (cat. 92031917-1VL, RRID:CVCL_1141). The non-small cell lung cancer cell lines NCI-H226 (RRID:CVCL_1544) and NCI-H322M (RRID:CVCL_1557) were established at the NCI and grown from internal seed stocks. Pooled donor human umbilical vein endothelial cells (HUVEC, Lonza, cat. CC-2519) and human mesenchymal stem cells (hMSC, Lonza, cat. PT-2501) were purchased from Lonza (Walkersville, MD).
Cell Culture. All cells were maintained in an incubator at 37 degrees C and 5% CO2 with 95% humidity. […]

**Q.** With `Cc1sc2c(c1C)C(c1ccc(Cl)cc1)=NC(CC(=O)Nc1ccc(O)cc1)c1nnc(C)n1-2` (stereo not given) + CC[C@@]1(O)C(=O)OCc2c1cc1n(c2=O)Cc2cc3c(CN(C)C)c(O)ccc3nc2-1 as the compound, how does the IC50 (second compound 0.003 µM) read?
**A.** 152 nM

**Q.** What about the IC50 (second compound 0.00949 µM) of the same compound?
**A.** 12.7 nM

**Q.** And the IC50 (second compound 0.03 µM)?
**A.** < 9.49 nM

**Q.** And the IC50 (second compound 0.0949 µM)?
**A.** < 9.49 nM

**Q.** And the IC50 (second compound 0.3 µM)?
**A.** < 9.49 nM

**Q.** What about the viability, T/C (second compound 0.003 µM, first compound 0.00949 µM) of the same compound?
**A.** 88%

**Q.** What about the viability, T/C (second compound 0.003 µM, first compound 0.03 µM) of the same compound?
**A.** 85%

**Q.** And the viability, T/C (second compound 0.003 µM, first compound 0.0949 µM)?
**A.** 66.2%

**Q.** And the viability, T/C (second compound 0.003 µM, first compound 0.3 µM)?
**A.** 26.5%

**Q.** And the viability, T/C (second compound 0.003 µM, first compound 0.949 µM)?
**A.** 6.68%

**Q.** And the viability, T/C (second compound 0.003 µM, first compound 3 µM)?
**A.** 1.61%

**Q.** And the viability, T/C (second compound 0.00949 µM, first compound 0.00949 µM)?
**A.** 63.4%

**Q.** And the viability, T/C (second compound 0.00949 µM, first compound 0.03 µM)?
**A.** 9.92%

**Q.** What about the viability, T/C (second compound 0.00949 µM, first compound 0.0949 µM) of the same compound?
**A.** 27.9%

**Q.** What about the viability, T/C (second compound 0.00949 µM, first compound 0.3 µM) of the same compound?
**A.** 4.81%

**Q.** And the viability, T/C (second compound 0.00949 µM, first compound 0.949 µM)?
**A.** 1.04%

**Q.** What about the viability, T/C (second compound 0.00949 µM, first compound 3 µM) of the same compound?
**A.** 0.47%

**Q.** And the viability, T/C (second compound 0.03 µM, first compound 0.00949 µM)?
**A.** 1.92%

**Q.** And the viability, T/C (second compound 0.03 µM, first compound 0.03 µM)?
**A.** 4.07%

**Q.** And the viability, T/C (second compound 0.03 µM, first compound 0.0949 µM)?
**A.** 0.85%

**Q.** What about the viability, T/C (second compound 0.03 µM, first compound 0.3 µM) of the same compound?
**A.** 0.58%

**Q.** And the viability, T/C (second compound 0.03 µM, first compound 0.949 µM)?
**A.** 0.55%

**Q.** And the viability, T/C (second compound 0.03 µM, first compound 3 µM)?
**A.** 0.5%

**Q.** What about the viability, T/C (second compound 0.0949 µM, first compound 0.00949 µM) of the same compound?
**A.** 1.59%

**Q.** And the viability, T/C (second compound 0.0949 µM, first compound 0.03 µM)?
**A.** 1.44%

**Q.** What about the viability, T/C (second compound 0.0949 µM, first compound 0.0949 µM) of the same compound?
**A.** 0.98%

**Q.** What about the viability, T/C (second compound 0.0949 µM, first compound 0.3 µM) of the same compound?
**A.** 0.78%

**Q.** And the viability, T/C (second compound 0.0949 µM, first compound 0.949 µM)?
**A.** 0.62%

**Q.** And the viability, T/C (second compound 0.0949 µM, first compound 3 µM)?
**A.** 5.05%

**Q.** And the viability, T/C (second compound 0.3 µM, first compound 0.00949 µM)?
**A.** 1.48%

**Q.** And the viability, T/C (second compound 0.3 µM, first compound 0.03 µM)?
**A.** 1.46%

**Q.** What about the viability, T/C (second compound 0.3 µM, first compound 0.0949 µM) of the same compound?
**A.** 1.06%

**Q.** What about the viability, T/C (second compound 0.3 µM, first compound 0.3 µM) of the same compound?
**A.** 0.57%

**Q.** And the viability, T/C (second compound 0.3 µM, first compound 0.949 µM)?
**A.** 0.28%

**Q.** And the viability, T/C (second compound 0.3 µM, first compound 3 µM)?
**A.** 0.2%
